Data reported in patent US20240109881A1, “Heteroaryl Compounds as Ligand Directed Degraders of IRAK4” (Bristol-Myers Squibb Company, priority 2022, published 2024).

Target: T1, IRAK4 (Homo sapiens, UniProt Q9NWZ3)
T1 construct: endogenous in cells; host or cells: THP-1 cells
T1 sequence (Q9NWZ3 1-460): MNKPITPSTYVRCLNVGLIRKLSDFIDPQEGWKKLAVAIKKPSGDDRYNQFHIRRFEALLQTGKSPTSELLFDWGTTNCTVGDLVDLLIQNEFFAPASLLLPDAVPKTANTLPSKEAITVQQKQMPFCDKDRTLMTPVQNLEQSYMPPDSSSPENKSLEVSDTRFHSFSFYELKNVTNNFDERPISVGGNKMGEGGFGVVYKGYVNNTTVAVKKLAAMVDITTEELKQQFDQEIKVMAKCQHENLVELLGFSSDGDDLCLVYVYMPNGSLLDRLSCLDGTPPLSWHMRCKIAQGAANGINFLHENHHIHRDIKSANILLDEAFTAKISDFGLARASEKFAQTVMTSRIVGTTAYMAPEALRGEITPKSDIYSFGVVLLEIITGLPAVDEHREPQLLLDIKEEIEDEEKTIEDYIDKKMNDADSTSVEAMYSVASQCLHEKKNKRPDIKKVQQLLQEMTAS
Assay: LVL THP1 HTRF (THP1 Homogeneous Time Resolved Fluorescence)
Assay type: cell-based
Conditions: THP1 cells, 18 h incubation with compound; for DC50: read-out: LVL THP1 HTRF EC50
Method in brief: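 IRAK4 HTRF read-out (665/615 nm ratio, anti-IRAK4 d2 acceptor and K donor, 18 h dark incubation at room temperature) on lysates of THP-1 cells. Cells were treated 18 h at 37° C. with 20 nL compound in DMSO, in colorless RPMI with 10% FBS, with a duplicate CTG plate.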

LVL THP1 HTRF YMIN [%]	DC50 [µM]	Structure (SMILES)
6.5	0.0454	C[C@H](C#N)Nc1cc(Nc2ncc(C#N)cc2Cl)ncc1-n1cc([C@H]2CC[C@H](CCN3CCN(c4ccc(N5CCC(=O)NC5=O)cc4)CC3)CC2)nn1 [P-384]
3.5	0.0111	C[C@H](C#N)Nc1cc(Nc2ncc(C#N)cn2)ncc1-n1cc([C@H]2CC[C@H](CCN3CCN(c4ccc(C5CCC(=O)NC5=O)cc4)CC3)CC2)nn1 (some centres unmarked) [P-388]
18.9	0.18	C[C@H](C#N)Nc1cc(Nc2ncc(C#N)cn2)ncc1-n1cc([C@H]2CC[C@H](CCN3CCN(c4ccc(N5CCC(=O)NC5=O)cc4)CC3)CC2)nn1 [P-389]
2.6	0.0093	CCNc1cc(-n2ncc3cc(C#N)cnc32)ncc1-n1cc([C@H]2CC[C@H](CCN3CCN(c4ccc(C5CCC(=O)NC5=O)cc4)CC3)CC2)nn1 (some centres unmarked) [P-395]
6.2	0.0143	COc1cnc2c(cnn2-c2cc(N[C@H](C)C#N)c(-n3cc([C@H]4CC[C@H](CCN5CCN(c6ccc(C7CCC(=O)NC7=O)cc6)CC5)CC4)nn3)cn2)c1 (some centres unmarked) [P-397]
8.2	0.0431	C[C@H](C#N)Nc1cc(-n2ncc3cc(C#N)cnc32)ncc1-n1cc([C@H]2CC[C@H](CCN3CCC(c4ccc(N5CCC(=O)NC5=O)cc4)C(F)C3)CC2)nn1 (some centres unmarked) [P-399]
5.6	0.0358	N#Cc1cnc2c(cnn2-c2cc(NCC3CCOCC3)c(-n3cc([C@H]4CC[C@H](CCN5CCN(c6ccc(C7CCC(=O)NC7=O)cc6)CC5)CC4)nn3)cn2)c1 (some centres unmarked) [P-407]
7.8	0.0426	N#Cc1cnc2c(cnn2-c2cc(NCC3COC3)c(-n3cc([C@H]4CC[C@H](CCN5CCN(c6ccc(C7CCC(=O)NC7=O)cc6)CC5)CC4)nn3)cn2)c1 (some centres unmarked) [P-408]
90.4	1	N#Cc1cnc2c(cnn2-c2cc(OCC3CCOCC3)c(-n3cc([C@H]4CC[C@H](CCN5CCN(c6ccc(C7CCC(=O)NC7=O)cc6)CC5)CC4)nn3)cn2)c1 (some centres unmarked) [P-411]
37.6	0.7	C[C@H](C#N)Nc1cc(-n2ncc3cc(C#N)cnc32)ncc1C(=O)N[C@H]1CC[C@H](CCN2CC3(CC(c4ccc(N5CCC(=O)NC5=O)cc4)C3)C2)CC1 [P-433]
1.9	0.0299	C[C@H](C#N)Nc1cc(Nc2ncc(C#N)cc2Cl)ncc1-n1cc([C@H]2CC[C@H](CCN3CC4(CC(c5ccc(N6CCC(=O)NC6=O)cc5)C4)C3)CC2)nn1 [P-434]
−5.4	0.0003	C[C@H](C#N)Nc1cc(-n2ncc3cc(C#N)cnc32)ncc1-n1cc([C@H]2CC[C@H](CCN3CCN(c4ccc(N5CCC(=O)NC5=O)c(F)c4)[C@H](C)C3)CC2)nn1 [P-436]
11.2	0.0924	C[C@H](C#N)Nc1cc(-n2ncc3cc(C#N)cnc32)ncc1-n1cc([C@H]2CC[C@H](CCN3CCC4(C3)CN(c3ccc(N5CCC(=O)NC5=O)cc3)C4)CC2)nn1 [P-439]
2.9	0.0537	C[C@H](C#N)Nc1cc(-n2ncc3cc(C#N)cnc32)ncc1-n1cc([C@H]2CC[C@H](CCN3CCN(c4cnc(N5CCC(=O)NC5=O)cn4)[C@H](C)C3)CC2)nn1 [P-440]
−0.6	0.0045	COc1cc(N2CCN(CC[C@H]3CC[C@H](c4cn(-c5cnc(-n6ncc7cc(C#N)cnc76)cc5N[C@H](C)C#N)nn4)CC3)CC2)ccc1N1CCC(=O)NC1=O [P-443]

Continued, compound first:

Structure (SMILES)	LVL THP1 HTRF YMIN [%]	DC50 [µM]
C[C@H](C#N)Nc1cc(Nc2ncc(F)cc2F)ncc1-n1cc([C@H]2CC[C@H](CCN3CCN(c4ccc(C5CCC(=O)NC5=O)cc4)CC3)CC2)nn1 (some centres unmarked) [P-382]	4.1	0.028
C[C@H](C#N)Nc1cc(Nc2ncncc2F)ncc1-n1cc([C@H]2CC[C@H](CCN3CCN(c4ccc(C5CCC(=O)NC5=O)cc4)CC3)CC2)nn1 (some centres unmarked) [P-383]	5.6	0.0313
C[C@H](C#N)Nc1cc(Nc2ncc(C#N)cc2F)ncc1-n1cc([C@H]2CC[C@H](CCN3CCN(c4ccc(N5CCC(=O)NC5=O)cc4)[C@H](C)C3)CC2)nn1 [P-385]	−1.9	0.0087
C[C@H](C#N)Nc1cc(Nc2ncc(C#N)cc2F)ncc1-n1cc([C@H]2CC[C@H](CCN3CCN(c4ccc(N5CCC(=O)NC5=O)cc4)CC3)CC2)nn1 [P-386]	6.7	0.0242
C[C@H](C#N)Nc1cc(Nc2ncc(C#N)cn2)ncc1-n1cc([C@H]2CC[C@H](CCN3CCN(c4ccc(N5CCC(=O)NC5=O)cc4)[C@H](C)C3)CC2)nn1 [P-387]	9.8	0.0141
CC(C)(O)CNc1cc(-n2ncc3cc(C#N)cnc32)ncc1-n1cc([C@H]2CC[C@H](CCN3CCN(c4ccc(C5CCC(=O)NC5=O)cc4)CC3)CC2)nn1 (some centres unmarked) [P-391]	−0.8	0.0037
CC[C@@H]1CN(CC[C@H]2CC[C@H](c3cn(-c4cnc(-n5ncc6cc(C#N)cnc65)cc4N[C@H](C)C#N)nn3)CC2)CCN1c1ccc(N2CCC(=O)NC2=O)cc1 [P-393]	−3.4	0.0061
COc1cnc(Nc2cc(N[C@H](C)C#N)c(-n3cc([C@H]4CC[C@H](CCN5CCN(c6ccc(C7CCC(=O)NC7=O)cc6)CC5)CC4)nn3)cn2)nc1 (some centres unmarked) [P-398]	5.8	0.024
C[C@H](C#N)Nc1cc(-n2ncc3cc(C#N)cnc32)ncc1-n1cc([C@H]2CC[C@H](CCN3CCC(c4ccc(N5CCC(=O)NC5=O)cc4)C(F)(F)C3)CC2)nn1 (some centres unmarked) [P-401]	0.5	0.012
N#Cc1cnc2c(cnn2-c2cc(N[C@H]3CCC[C@H]3O)c(-n3cc([C@H]4CC[C@H](CCN5CCN(c6ccc(C7CCC(=O)NC7=O)cc6)CC5)CC4)nn3)cn2)c1 (some centres unmarked) [P-402]	1.9	0.0033
N#Cc1cnc2c(cnn2-c2cc(N[C@H]3CCC[C@@H]3O)c(-n3cc([C@H]4CC[C@H](CCN5CCN(c6ccc(C7CCC(=O)NC7=O)cc6)CC5)CC4)nn3)cn2)c1 (some centres unmarked) [P-403]	3.7	0.0025
N#Cc1cnc2c(cnn2-c2cc(NC3CCOCC3)c(-n3cc([C@H]4CC[C@H](CCN5CCN(c6ccc(C7CCC(=O)NC7=O)cc6)CC5)CC4)nn3)cn2)c1 (some centres unmarked) [P-406]	1.7	0.0076
N#Cc1cnc2c(cnn2-c2cc(OC3CC3)c(-n3cc([C@H]4CC[C@H](CCN5CCN(c6ccc(C7CCC(=O)NC7=O)cc6)CC5)CC4)nn3)cn2)c1 (some centres unmarked) [P-409]	8.3	0.0825
N#Cc1cnc2c(cnn2-c2cc(NC3CCCC3)c(-n3cc([C@H]4CC[C@H](CCN5CCN(c6ccc(N7CCC(=O)NC7=O)cc6)CC5)CC4)nn3)cn2)c1 [P-412]	15.2	0.16
C[C@H](C#N)Nc1cc(-n2ncc3cc(C#N)cnc32)ncc1-n1cc([C@H]2CC[C@H](CCN3CCC(c4ccn(C5CCC(=O)NC5=O)c(=O)c4)CC3)CC2)nn1 (some centres unmarked) [P-413]	−1.3	0.0051
C[C@H](C#N)Nc1cc(-n2ncc3cc(C#N)cnc32)ncc1-n1cc([C@H]2CC[C@H](CCN3CCN(Cc4ccc(N5CCC(=O)NC5=O)cc4)CC3)CC2)nn1 [P-422]	39.6	0.979
C[C@H](C#N)Nc1cc(-n2ncc3cc(C#N)cnc32)ncc1-n1cc([C@H]2CC[C@H](CCN3CCN(c4ccc(N5CCC(=O)NC5=O)nn4)CC3)CC2)nn1 [P-423]	8.6	0.143
C[C@H](C#N)Nc1cc(-n2ncc3cc(C#N)cnc32)ncc1C(=O)N[C@H]1CC[C@H](CCN2CCC(c3ccn(C4CCC(=O)NC4=O)c(=O)c3)CC2)CC1 (some centres unmarked) [P-425]	0.8	0.124
C[C@H](C#N)Nc1cc(-n2ncc3cc(C#N)c(N)nc32)ncc1-n1cc([C@H]2CC[C@H](CCN3CCN(c4ccc(N5CCC(=O)NC5=O)cn4)CC3)CC2)nn1 [P-428]	−0.6	0.0032
C[C@H](C#N)Nc1cc(-n2ncc3cc(C#N)cnc32)ncc1-n1cc([C@H]2CC[C@H](CCN3CC4(CC(c5ccc(N6CCC(=O)NC6=O)c(Cl)c5)C4)C3)CC2)nn1 [P-432]	1.8	0.0013
C[C@H](C#N)Nc1cc(-n2ncc3cc(C#N)cnc32)ncc1-n1cc([C@H]2CC[C@H](CCN3CCN(c4ccc(N5CCC(=O)NC5=O)c(Cl)c4)[C@H](C)C3)CC2)nn1 [P-437]	0.0	0.0004
C[C@H](C#N)Nc1cc(-n2ncc3cc(C#N)cnc32)ncc1-n1cc([C@H]2CC[C@H](CCN3CCN(c4ncc(N5CCC(=O)NC5=O)cn4)[C@H](C)C3)CC2)nn1 [P-438]	2.2	0.0034
CC[C@@H]1CN(CC[C@H]2CC[C@H](c3cn(-c4cnc(-n5ncc6cc(C#N)cnc65)cc4N[C@H](C)C#N)nn3)CC2)CCN1c1ccc(N2CCC(=O)NC2=O)cc1 [P-441]	−0.1	0.0026
CC[C@H]1CN(CC[C@H]2CC[C@H](c3cn(-c4cnc(-n5ncc6cc(C#N)cnc65)cc4N[C@H](C)C#N)nn3)CC2)CCN1c1ccc(C2CCC(=O)NC2=O)cc1 (some centres unmarked) [P-442]	−2.0	0.0044
C[C@H](C#N)Nc1cc(-n2ncc3cc(C#N)cnc32)ncc1-n1cc([C@H]2CC[C@H](CCN3CC4(CC(c5ccc(N6CCC(=O)NC6=O)c(F)c5)C4)C3)CC2)nn1 [P-444]	−1.6	0.0052
